Read-outs that look alike come from different tables or passages of the source. Where a SMILES comes first, the peptide text is derived from it. The star is where a group is joined. Galloyl = O=C(c1cc(O)c(O)c(O)c1)*
Experiments:
[1] = tested on: lipid droplets in HCVcc-infected Huh-7.5 cells; assay: Intracellular distribution and quantity of neutral lipids (Bodipy 493/503); assay type: cell-based, human; details: 20 μM; 48 h; HCV-infected Huh-7.5
Source text: Figure 7 GA-Hecate effect on lipid droplets. (A) Pattern of lipid droplet distribution on treated and non-treated HCV-infected Huh-7.5 cells and the lipid droplets relative quantification. Blue: DAPI staining nuclei; Green: lipid droplets stained by Bodipy 493/503; Red: HCV NS5A represented by Alexa fluor-594. (B) Light Scattering Dynamic showing synthetic unilamellar vesicle size with lipid droplet constitution after treatment with the following: I. Water (negative control of size change); II. Triton-X 100 (positive control of size change); III. Hecate; IV. GA-Hecate.
To evaluate the GA-Hecate effect on the intracellular neutral lipid distribution, the GA-Hecate-treated cells at maximum non-cytotoxic concentration (20 μM) were evaluated 48 h post-treatment. For this purpose, 2 × 10^4 Huh-7.5 cells that were infected with HCVcc were seeded in a 24-well plate 24 h […] the treatment. On the following day, GA-Hecate or water (peptide diluent) were added in the plate and incubated for 48 h. […] To quantify the intracellular lipid content, two - four photos/well were performed and the fluorescence intensity was measured by ImageJ software. Bodipy fluorescence was normalized with DAPI fluorescence.

[2] = tested on: Huh-7.5 cells harboring SGR-JFH-1 Feo; assay: MTT cytotoxicity in hepatocytes; assay type: cell-based, human
Source text: (§1) Figure 2 Hecate and its derivative-peptide effects on subgenomic HCV genotype 2a replication and hepatotoxicity. (A) Hecate. (B) Lys- Hecate. (C) GA-Hecate. (D) GA2-Hecate. (E) Acetyl-Hecate. (F) Glu-Hecate. Luciferase assays report HCV replication and MTT assays report the viability of Huh-7.5 cells harboring SGR-JFH-1 Feo under peptide treatment. Water was used as a negative control of virus replication inhibition and cell death (Control (−)), and Cyclosporine A was used as a positive control for virus replication inhibition (Control (+)). Red dotted lines represent the arbitrary threshold of 80% cell viability, and blue dotted lines represent the maximum inhibition presented by Hecate at the maximum safe concentration. Bars represent triplicates of the three independent assays. ***P < 0.01 vs control (−).
Peptide cytotoxicity profiles were measured by the MTT [3-(4,5-dimethylthiazol- 2-yl)-2,5-diphenyl tetrazolium bromide] (Sigma–Aldrich) method. Twenty-four hours before treatment, 5 × 10^3 SGR-harboring cell lines (SGR-Feo-JFH-1 or S52/SG-neo) were cultured with supplemented DMEM in a 96-multi-well plate and incubated at 37 °C in a humidified 5% CO2 incubator. On the subsequent day, peptide-containing medium was added at the following final concentrations: 2.5, 5, 10 and 20 μM. The tested peptides were Hecate and its derivatives, which included the following: lysine addition (Lysine-Hecate/Lys-Hecate); one or two molecules of Gallic Acid (GA-Hecate and GA2-Hecate); one acetyl radical (Acetyl-Hecate) or Glutamic acid (Glu-Hecate). After 48 h of incubation, peptide-media was removed, and MTT at a final concentration of 1 mg/mL was added to the wells, incubated for 30 minutes and subsequently replaced by 100 μL of DMSO. Absorbance was measured at 562 nm, using a plate spectrophotometer (FLUOstar Omega/BMG LABTECH, Offenburg, BW, DE). Cell viability was calculated considering water-treated cells (peptides diluent) as a negative control. All experiments were performed in triplicate and in three independent replicates. Further assays were performed considering at least 80% viability of the treated cells.
(§2) GA-Hecate toxicity and viral inhibition profile in 24, 48 and 72h post-treatment in […]
(§3) GA-Hecate toxicity and viral inhibition capacity were evaluated at 24, 48 and 72h post-treatment. Tested concentrations were 1.25; 2.5; 5; 10; 20; and 40 µM. At the end of every incubation, cells were stained using MTT as previously described. Similarly, at every time point, treated cells were lysed using PLB and summited to Luminescence analysis as previously described. […]

[3] = tested on: HCV subgenomic replicon SGR-Feo-JFH-1 (genotype 2a); assay: HCV subgenomic replicon replication, luciferase assay (genotype 2a); assay type: cell-based, hepatitis C virus
Source text: as §1
Cell lines harboring subgenomic or genomic replicons were seeded at 5 × 10^3 cells /well on 96-well plates and the compounds were added 24 h post-seeding, in a concentration range between 2.5–20 μM. After 48 h of treatment, the cells were disrupted with 30 μL of passive lysis buffer (Promega, Madison, WI, USA), and luciferase substrate (Promega, Madison, WI, USA) was automatically added to each sample. Luciferase activity was measured using a luminometer (FLUOstar Omega/BMG LABTECH, Offenburg, BW, DE). The same assays were performed in Huh-7.5 cell lines harboring SGR-JFH1 Feo, S52/SG-neo or FL-J6/JFH-50C19Rluc2AUbi. Cyclosporine A (Sigma-Aldrich) at 1 μM was used as positive control of viral replication inhibition and dH2O as negative control.
as §2, §3

[4] = Permeabilization of LUVs, carboxyfluorescein release (lipid droplet mimetic); details: POPC:Cholesterol 9:1
Source text: Figure 8 Permeabilization of LUVs. (A) Percentage of carboxyfluorescein release in POPC:POPS (9:1) Post addition of LUVs at different concentrations of Hecate and GA-Hecate. (B) Percentage of carboxyfluorescein release results in POPC:Cholesterol (9:1) LUVs after the addition of different concentrations of Hecate and GA-Hecate. The bars indicate SD.
Phosphatidylcholine:Cholesterol (POPC:Cholesterol - 9:1; m:m) and phosphatidylcholine:phosphatidylserine (POPC:POPS - 9:1; m:m) vesicles, which mimic lipid droplets and the virus envelope, respectively, were prepared at a concentration of 15 mmol·L^−1. Each mixture was submitted to lipid solubilization in chloroform/methanol (4:1; v:v) and subsequent evaporation by nitrogen gas flow, resulting in the formation of a lipid film. The product evaporated using a vacuum procedure for complete removal of the solvents and then a solution containing the fluorophore carboxyfluorescein (CF; 50 mM) was added. The mixture was warmed up to 60 °C, sonicated and agitated for equal periods for 10 min to allow for the formation of vesicles encapsulated with CF. Following this, the mixture was processed in an extruder machine (Avanti Polar Lipids) to obtain large unilamellar vesicles. The obtained solution was then applied to a size exclusion column with Sephadex G20 resin for separation of the unencapsulated CF. […]

Q: Which results are given for CC(C)C[C@H](NC(=O)[C@H](C)NC(=O)[C@H](CCCCN)NC(=O)[C@H](CCCCN)NC(=O)[C@H](CC(C)C)NC(=O)[C@H](C)NC(=O)[C@H](CCCCN)NC(=O)[C@H](CCCCN)NC(=O)[C@H](CC(C)C)NC(=O)[C@H](CCCCN)NC(=O)[C@H](CCCCN)NC(=O)[C@H](CC(C)C)NC(=O)[C@H](C)NC(=O)[C@H](CCCCN)NC(=O)[C@H](CCCCN)NC(=O)[C@H](CC(C)C)NC(=O)[C@H](C)NC(=O)[C@H](CCCCN)NC(=O)[C@H](CC(C)C)NC(=O)[C@H](C)NC(=O)[C@H](CC(C)C)NC(=O)[C@H](C)NC(=O)[C@H](Cc1ccccc1)NC(=O)c1cc(O)c(O)c(O)c1)C(N)=O [GA-Hecate] (Galloyl-FALALKALKKALKKLKKALKKAL-NH2)?
A: effect on lipid droplets distribution and quantity [1]: altered the lipid droplets distribution and reduced its quantity; cell toxicity ([2]; 1.25 µM, 72 h): no cell toxicity; cell death ([2]; 20 μM): 20%; CC50 (50% cytotoxic concentration) ([2]; 48 h incubation, SGR-Feo-JFH-1 Huh-7.5 cells, triplicate in three independent assays): 34.95 µM; CC50 72 h post-treatment ([2]; 72 h, 1.25-40 µM): 19 µM; maximum non-toxic (safe) concentration in hepatocytes ([2]; arbitrary threshold of 80% cell viability, 48 h): 20 µM; inhibition of viral replication ([3]; 1.25 µM, 72 h): about 50%; SI (selectivity index), ratio CC50/EC50 ([3]; 48 h, genotype 2a replicon): 3.13; SI 72 h post-treatment ([3]; 72 h): 5; EC50 ([3]; Huh-7.5 harbouring SGR-Feo-JFH-1 genotype 2a, 48 h treatment, 2.5-20 μM, luciferase, triplicate in three independent assays, read-out: EC50 (50% effective concentration for HCV)): 11.2 µM; EC50 ([3]; SGR-Feo JFH-1, 72 h, 1.25-40 µM, read-out: EC50 72 h post-treatment (IC50 in the supplement)): 3.8 µM; inhibition of HCV replication at the maximum safe concentration ([3]; genotype 2a replicon, 48 h, at each peptide's maximum safe concentration (Hecate 10 μM; Lys-, Glu-, Acetyl-Hecate 5 μM)): approximately 80%; permeabilization effect relative to Hecate (fold higher) [4]: approximately 2 fold; permeabilization of LUVs (carboxyfluorescein release) ([4]; peptide 0.1 μM, 1% Triton = 100%, once in triplicate): approximately 70%
